Measurements published in patent publication US20240180849A1, “IMMUNOFUNCTIONAL CARRIER, METHODS OF USES, AND COMPOSITION MATTERS AS AN ANTITUMOR IMMUNOTHERAPY” (priority 2021, published 2024).

How the values were obtained:
BMDCs = assay: Cytotoxicity, propidium iodide staining; assay type: cell-based, mouse; conditions: at ≤PTX 2 μg/mL (and 2E′ 10 μg/mL)
Description: (§1) Bone marrow-derived dendritic cells (BMDCs) and bone marrow-derived macrophages (BMDMs) were differentiated from mouse bone marrow cells. The bone marrow was collected from the femur of female Balb/c or male C57BL/6 mice (7 weeks old), pipetted several times, and passed through a 100 and 40 μm cell strainer to obtain single-cell suspension. The cells were collected by centrifugation at 500 ref for 8 min, treated with ACK lysis buffer, rinsed, and cultured in Alpha minimum essential medium (MEM-Alpha, ribonucleosides, deoxyribonucleosides, 4 mM L-glutamine, 1 mM sodium pyruvate) supplemented with 100 units/mL penicillin, 100 μg/mL streptomycin, […] β-mercaptoethanol, 20 ng/ml murine GM-CSF and 20% fetal bovine serum. After 7 days, floating or loosely adherent cells were collected by centrifugation and identified as BMDC by APC anti-mouse CD11c antibody labeling. Adherent cells were identified as BMDM by FITC anti-mouse F4/80 antibody labeling.

splenocytes = assay: Cytotoxicity, propidium iodide staining; assay type: cell-based, mouse; conditions: at ≤PTX 2 μg/mL (and 2E′ 10 μg/mL)
Description: The spleen was collected from healthy or tumor-bearing mice to isolate splenocytes. The collected spleens were cut into pieces and filtered through 70 μm and 40 μm cell strainers sequentially to obtain a single-cell suspension. The cell suspension was incubated with 1 mL ammonium-chloride-potassium (ACK) lysis buffer for 3 min to remove red blood cells.

CT26 cells = assay: Cytotoxicity, MTT assay; assay type: cell-based, mouse
Description: CT26 cells, B16F10 cells, BMDC, or splenocytes were seeded in a 96 well plate at a density of 8,000 cells per well (CT26, B16F10) or 15,000 cells per well (BMBCs, splenocytes). […] After incubation for another 24 h, the cell cytotoxicity was measured by the MTT assay (CT26, B16F10) or propidium iodide (PI) staining (BMDC, splenocytes). […] The values of CI<1, CI=1, and CI>1 represent synergy, additivity, and antagonism, respectively^53.

BMDCs and JAWSII DCs = assay: BMDC and JAWSII DC stimulation (maturation markers, flow cytometry); assay type: cell-based, mouse
BMDCs and BMDMs = assay: Cytokine production from BMDC and BMDM (ELISA); assay type: cell-based, mouse; conditions: 24 h
Description: as §1
After 24 h incubation, the cells were collected, resuspended in staining buffer, incubated with Fc-blocking antibody for 15 min at 4° C., labeled with anti-mouse CD11c, CD86, CD40, and MHC-II antibodies for 20 min at 4° C., and analyzed by the BD Accuri C6 Flow Cytometer. […] After 24 h, the media were analyzed for IL-1β and TNF-α by ELISA (Invitrogen, Carlsbad, CA) according to the manufacturer's protocols.

TLR-5 = target: T1, TLR-5 (Mus musculus, UniProt Q9JLF7); assay: TLR-5 activation assay, HEK-Blue mTLR5 reporter cells (SEAP); assay type: cell-based; conditions: TLR reporter cell line, colorimetric SEAP
T1 construct: host or cells: HEK-Blue mTLR5 cells
Description: (§2) TLR-5 activation was tested with HEK-Blue™ mTLR5 Cells, TLR-5 reporter cells (Invitrogen, Carlsbad, CA). The TLR-4 reporter cells were plated in a 96 well plate at a density of 100,000 cells per well in RPMI medium. The TLR-5 reporter cells were plated in a 96 well plate with a density of 25,000 cells per well in HEK-Blue™ Detection medium. […] The supernatant was collected for secreted embryonic alkaline phosphatase (SEAP) assay. The absorbance of SEAP was measured at 620 nm.

TLR-4 = target: T2, TLR-4 (Homo sapiens, UniProt O00206); assay: TLR-4 activation assay, THP1-XBlue-MD2-CD14 reporter cells (SEAP); assay type: cell-based; conditions: at comparable concentrations
T2 construct: host or cells: THP1-XBlue-MD2-CD14 cells
Description: as §2

CT26 and B16F10 cells = assay: CRT expression in tumor cells; assay type: cell-based, mouse
Description: 2×10^5 CT26 or B16F10 cells were seeded in a 6-well plate overnight. […] After 6 h or 24 h, the cells were collected, resuspended in staining buffer, incubated with anti-mouse CD16/32 antibody to block non-specific binding of the immunoglobulin to Fc receptors, and stained with Alexa Fluor 488-conjugated anti-CRT monoclonal antibody (ab196158, Abcam). The cells were incubated with 0.5 μg/mL propodium iodide for 1 min prior to the analysis with the BD Accuri C6 Flow Cytometer. For visualizing CRT exposure, 2×10^5 CT26 or B16F10 cells were seeded in a confocal dish, incubated with different treatments for 24 h, washed, stained in the same manner as above, and fixed with 4% paraformaldehyde. Confocal images of the fixed cells were taken with the Nikon A1R confocal microscope (Nikon America Inc., Melville, NY) after brief staining with 2 μg/mL Hoechst 33342.

[1] = test system: DCs or BMDMs co-cultured with CT26 or B16F10 cells; conditions: PTX-pretreated CT26 or B16F10 cells, with 7 μg/mL 2E′
Description: CT26 or B16F10 cancer cells were stained with Cell Tracker Green (Invitrogen, Carlsbad, CA) for 1 h and treated with 5 μg/mL PTX for 24 h. […] The co-cultured cells were collected, resuspended in staining buffer, and analyzed by the BD Accuri C6 Flow Cytometer or BD LSRFortessa Flow Cytometer (San Jose, CA, USA). DCs taking up the PTX-treated cancer cells (cancer cell^+ DC or macrophages) was quantified as the percentage of double-positive cells in Cell-Tracker Deep Red-stained BMDC, JAWSII DC or BMDM, and the phagocytized cancer cells as the percentage of double-positive cells in Cell Tracker Green-stained cancer cells.

CT26 tumors [2] = assay: Antitumor effects in Balb/c mice with bilateral CT26 tumors; assay type: in vivo; conditions: single IT injection, 1 mg 2E′ (+0.2 mg PTX) per mouse
Description: Tumors were established in both flanks simultaneously by subcutaneous inoculation. 1×10^6 of CT26 cells were innoculated in the flank of the right hind limb, and 3×10^5 of CT26 cells in the left flank of the same mouse. […] The sizes of the treated tumor and the non-treated tumor on the left side were measured with a digital caliper every other day, and tumor volumes were calculated as (width^2×length)/2.

CT26 tumors [3] = assay: Antitumor effects in Balb/c mice with CT26 tumors and delayed rechallenge(s) of live cells; assay type: in vivo
From the text: Tumor growth was monitored as described above. To test whether antitumor immunity was established, the mice surviving with complete tumor remission by 30 days from the treatment were rechallenged with 1×10^5 live CT26 cells on the contralateral flank. The mice resistant to the first rechallenge were challenged again with 2×10^6 live CT26 cells on 60 days from the treatment. In two separate experiments, surviving Balb/c mice were rechallenged once on 6 or 17 days after the treatment.

B16F10 cells = conditions: 24 h incubation
Description: CT26 cells, B16F10 cells, BMDC, or splenocytes were seeded in a 96 well plate at a density of 8,000 cells per well (CT26, B16F10) or 15,000 cells per well (BMBCs, splenocytes). After 24 h incubation, the cell culture medium was replaced with fresh complete medium containing 2E, PEI, 2E′/PTX or 2E′/PTX/siPD-L1 treatments in different concentrations. After incubation for another 24 h, the cell cytotoxicity was measured by the MTT assay (CT26, B16F10) or propidium iodide (PI) staining (BMDC, splenocytes). For the MTT assay, the treatments were replaced with 100 μL of fresh complete medium and 15 μL of 5 mg/mL MTT solution. After 4 h incubation, 100 μL of stop/solubilization solution was added to the cells and incubated overnight. The absorbance of dissolved formazan was read by the SpectraMax M3 microplate reader (Molecular Devices, Sunnyvale, CA) at 560 nm. For PI staining, the treatments were removed and cells were rinsed with PBS, collected, and resuspended in 100 μL of cell staining buffer. Five microliters (40 ng) of PI staining solution was added to each sample immediately before the analysis by the BD Accuri C6 Flow Cytometer. The combination index (CI) was determined by Compusyn (Combosyn, Inc., Paramus, NJ). The values of CI<1, CI=1, and CI>1 represent synergy, additivity, and antagonism, respectively^53.

T2 sequence (O00206 24-839): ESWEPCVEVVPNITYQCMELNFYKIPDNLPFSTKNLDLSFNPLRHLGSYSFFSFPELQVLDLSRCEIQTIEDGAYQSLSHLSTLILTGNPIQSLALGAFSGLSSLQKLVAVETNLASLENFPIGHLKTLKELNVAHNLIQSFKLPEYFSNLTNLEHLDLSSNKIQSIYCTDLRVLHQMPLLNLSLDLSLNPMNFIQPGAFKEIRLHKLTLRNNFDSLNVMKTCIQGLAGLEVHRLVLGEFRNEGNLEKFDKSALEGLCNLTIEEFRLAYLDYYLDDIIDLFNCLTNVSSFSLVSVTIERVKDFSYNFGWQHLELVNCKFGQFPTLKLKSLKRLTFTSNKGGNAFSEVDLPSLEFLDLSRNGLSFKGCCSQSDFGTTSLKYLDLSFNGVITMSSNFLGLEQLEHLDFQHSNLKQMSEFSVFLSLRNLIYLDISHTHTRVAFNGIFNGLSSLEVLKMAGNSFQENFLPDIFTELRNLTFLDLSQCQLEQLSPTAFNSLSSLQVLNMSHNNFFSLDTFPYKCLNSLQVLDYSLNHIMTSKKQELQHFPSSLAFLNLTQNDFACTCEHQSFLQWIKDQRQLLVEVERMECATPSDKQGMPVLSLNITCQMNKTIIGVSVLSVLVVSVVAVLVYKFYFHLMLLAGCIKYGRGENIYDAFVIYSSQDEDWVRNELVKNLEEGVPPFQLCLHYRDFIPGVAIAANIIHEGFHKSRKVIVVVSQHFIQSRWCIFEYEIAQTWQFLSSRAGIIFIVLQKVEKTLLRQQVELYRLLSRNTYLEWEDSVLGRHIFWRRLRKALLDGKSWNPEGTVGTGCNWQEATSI
T2 sequence (Q9Y6Y9 17-160 partner limits assumed): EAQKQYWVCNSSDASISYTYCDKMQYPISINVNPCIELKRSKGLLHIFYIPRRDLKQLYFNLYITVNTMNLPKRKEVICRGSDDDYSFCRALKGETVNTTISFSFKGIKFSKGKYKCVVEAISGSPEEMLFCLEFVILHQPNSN
T1 sequence (Q9JLF7 27-859): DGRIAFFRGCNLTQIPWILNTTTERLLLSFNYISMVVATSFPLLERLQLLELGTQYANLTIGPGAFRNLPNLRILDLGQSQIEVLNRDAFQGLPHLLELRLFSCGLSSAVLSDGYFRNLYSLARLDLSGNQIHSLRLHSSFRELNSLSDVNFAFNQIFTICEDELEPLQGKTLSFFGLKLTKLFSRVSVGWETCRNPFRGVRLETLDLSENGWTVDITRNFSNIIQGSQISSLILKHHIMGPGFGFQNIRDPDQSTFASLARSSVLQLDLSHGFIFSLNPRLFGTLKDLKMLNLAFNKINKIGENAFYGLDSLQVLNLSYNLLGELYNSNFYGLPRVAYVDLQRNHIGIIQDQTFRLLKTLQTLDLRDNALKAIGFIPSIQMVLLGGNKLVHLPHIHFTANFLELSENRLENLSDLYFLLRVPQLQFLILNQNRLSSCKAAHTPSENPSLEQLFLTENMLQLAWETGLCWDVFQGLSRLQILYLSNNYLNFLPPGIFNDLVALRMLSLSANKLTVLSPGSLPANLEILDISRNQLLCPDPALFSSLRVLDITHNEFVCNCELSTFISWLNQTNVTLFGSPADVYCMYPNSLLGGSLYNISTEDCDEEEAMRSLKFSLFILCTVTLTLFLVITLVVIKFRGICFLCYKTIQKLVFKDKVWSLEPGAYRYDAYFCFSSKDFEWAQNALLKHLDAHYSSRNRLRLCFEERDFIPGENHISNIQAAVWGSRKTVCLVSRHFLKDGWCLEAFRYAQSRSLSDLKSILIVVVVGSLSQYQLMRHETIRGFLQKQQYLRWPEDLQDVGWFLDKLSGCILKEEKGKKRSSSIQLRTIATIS

Molecule	cytotoxicity to BMDCs (BMDCs)	cytotoxicity to splenocytes (splenocytes)	toxicity to CT26 cells relative to normal splenocytes (CT26 cells)	toxicity to CT26 cells relative to BMDCs (CT26 cells; 24 h incubation)	maturation of DCs (BMDCs and JAWSII DCs; BMDCs, JAWSII DCs, 24 h)	immunostimulatory responses relative to PEI (BMDCs and JAWSII DCs; all tests: DC maturation, TNF-α/IL-1β, TLR-5, CRT)	TNF-α and IL-1β production/secretion (BMDCs and BMDMs)	TLR-5 signaling (TLR-5)	TLR-4 signaling (TLR-4)	cell surface calreticulin (CRT) exposure (CT26 and B16F10 cells)	fractions of DCs or BMDMs taking up cancer cells and of cancer cells taken up [1]	growth of untreated distant tumors vs D5W (CT26 tumors [2])	mice with complete regression (CR) of the treated tumors (CT26 tumors [2]) [%]	mice with CR (tumor-free) (CT26 tumors [3]; 1 mg 2E′, 0.2 mg/mL PTX, 0.67 mg siRNA, single IT, n=8) [%]	animals with CR of the treated tumors (CT26 tumors [3]; 1.4 mg 2E′ (+0.2 mg PTX) per mouse, single IT) [%]	tumor-free mice in which growth of rechallenged tumor was prevented (CT26 tumors [3]; 1.4 mg 2E′ (+0.2 mg PTX), rechallenge with live CT26 cells day 17)	mice with growth of primary tumors inhibited (CT26 tumors [3]; 2.7 mg 2E′ (+0.4 mg PTX) per mouse, single IT) [%]	mice with no tumor growth of untreated distant tumor (CT26 tumors [3]; 2.7 mg 2E′ (+0.4 mg PTX), distant tumor inoculated 6 days after treatment) [%]	tumor growth after second rechallenge (CT26 tumors [3]; 2×10^6 live CT26 cells)	toxicity to B16F10 cells relative to BMDCs (B16F10 cells)
CC(=O)O[C@H]1C(=O)[C@@]2(C)[C@H]([C@H](OC(=O)c3ccccc3)[C@]3(O)C[C@H](OC(=O)[C@H](O)[C@@H](NC(=O)c4ccccc4)c4ccccc4)C(C)=C1C3(C)C)[C@]1(OC(C)=O)CO[C@@H]1C[C@@H]2O [PTX, paclitaxel]	did not show significant cytotoxicity	did not show significant cytotoxicity																		
Polyethyleneimine-Lithocholic Acid Conjugate [2E′]			greater toxicity to CT26 cells than normal splenocytes	more toxic to CT26 and B16F10 cells than to bone marrow-derived DCs	induced the maturation of BMDCs and JAWSII DCs	induced greater responses than PEI	promoted the production	activated TLR-5 signaling	Neither 2E′ nor PEI activated TLR-4 signaling	exposed the cell surface calreticulin (CRT)	substantially increased	the difference was insignificant	60	50	40	one of the two	57	57	exponential tumor growth in 10-15 days after the second challenge	more toxic to CT26 and B16F10 cells than to bone marrow-derived DCs
